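Cells were grown in 96-well plates and exposed to each compound for 48 hours at five concentrations; endpoints were interpolated linearly between bracketing concentrations, or set to the highest concentration if not reached. TGI marks complete inhibition of growth.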
Tests used:
Assay in all cases: NCI tumour cell line growth inhibition, 48 h
DLD-1 colon = tested on: DLD-1 colon
SNB-75 CNS = tested on: SNB-75 CNS
SN12C renal = tested on: SN12C renal
SF-295 CNS = tested on: SF-295 CNS
RPMI-8226 leukemia = tested on: RPMI-8226 leukemia
SF-539 CNS = tested on: SF-539 CNS
M14 melanoma = tested on: M14 melanoma
HOP-18 NSCLC = tested on: HOP-18 NSCLC
TK-10 renal = tested on: TK-10 renal
HT29 colon = tested on: HT29 colon
CAKI-1 renal = tested on: CAKI-1 renal
K-562 leukemia = tested on: K-562 leukemia
NCI-H460 lung = tested on: NCI-H460 lung
HOP-62 NSCLC = tested on: HOP-62 NSCLC
M19-MEL melanoma = tested on: M19-MEL melanoma
CCRF-CEM leukemia = tested on: CCRF-CEM leukemia
MOLT-4 leukemia = tested on: MOLT-4 leukemia
UO-31 renal = tested on: UO-31 renal
NCI-H522 lung = tested on: NCI-H522 lung
EKVX NSCLC = tested on: EKVX NSCLC
UACC-257 melanoma = tested on: UACC-257 melanoma
SK-MEL-2 melanoma = tested on: SK-MEL-2 melanoma
A549 NSCLC = tested on: A549 NSCLC
SK-MEL-28 melanoma = tested on: SK-MEL-28 melanoma
NCI-H226 lung = tested on: NCI-H226 lung
RXF-631 renal = tested on: RXF-631 renal
ACHN renal = tested on: ACHN renal
DMS 114 small cell lung = tested on: DMS 114 small cell lung
XF 498 CNS = tested on: XF 498 CNS
COLO 205 colon = tested on: COLO 205 colon
HCC-2998 colon = tested on: HCC-2998 colon
OVCAR-8 ovarian = tested on: OVCAR-8 ovarian
DMS 273 small cell lung = tested on: DMS 273 small cell lung
SK-MEL-5 melanoma = tested on: SK-MEL-5 melanoma
KM12 colon = tested on: KM12 colon
NCI-H23 lung = tested on: NCI-H23 lung
IGROV1 ovarian = tested on: IGROV1 ovarian
HCT-15 colon = tested on: HCT-15 colon
786-0 renal = tested on: 786-0 renal
LXFL 529 NSCLC = tested on: LXFL 529 NSCLC
UACC-62 melanoma = tested on: UACC-62 melanoma
SW-620 colon = tested on: SW-620 colon
KM20L2 colon = tested on: KM20L2 colon
SF-268 CNS = tested on: SF-268 CNS
OVCAR-3 ovarian = tested on: OVCAR-3 ovarian
OVCAR-5 ovarian = tested on: OVCAR-5 ovarian
RXF 393 renal = tested on: RXF 393 renal
LOX IMVI melanoma = tested on: LOX IMVI melanoma
SK-OV-3 ovarian = tested on: SK-OV-3 ovarian
MALME-3M melanoma = tested on: MALME-3M melanoma
HL-60(TB) leukemia = tested on: HL-60(TB) leukemia
HOP-92 NSCLC = tested on: HOP-92 NSCLC
A498 renal = tested on: A498 renal
SR leukemia = tested on: SR leukemia
OVCAR-4 ovarian = tested on: OVCAR-4 ovarian
SNB-19 CNS = tested on: SNB-19 CNS
U251 CNS = tested on: U251 CNS
HCT-116 colon = tested on: HCT-116 colon
MCF7 breast = tested on: MCF7 breast
NCI/ADR-RES ovarian = tested on: NCI/ADR-RES ovarian
SNB-78 CNS = tested on: SNB-78 CNS
P388/ADR leukemia = tested on: P388/ADR leukemia
SN12K1 renal = tested on: SN12K1 renal
P388 leukemia = tested on: P388 leukemia

O=S1c2ccccc2N=C(c2ccc3ccccc3c2)CC1C1=CC=CCC1 (stereo not given)
TGI (DLD-1 colon): 26 µM
TGI (SNB-75 CNS): 50.6 µM
TGI (SN12C renal): 36.9 µM
TGI (SF-295 CNS): 39.6 µM
TGI (RPMI-8226 leukemia): 36.9 µM
TGI (SF-539 CNS): 45.3 µM
TGI (M14 melanoma): 35.6 µM
TGI (HOP-18 NSCLC): > 100 µM
TGI (TK-10 renal): 51.7 µM
TGI (HT29 colon): 31.4 µM
TGI (CAKI-1 renal): 29.6 µM
TGI (K-562 leukemia): 27.4 µM
TGI (NCI-H460 lung): 54.5 µM
TGI (HOP-62 NSCLC): 40.4 µM
TGI (M19-MEL melanoma): 31.2 µM
TGI (CCRF-CEM leukemia): 23.6 µM
TGI (MOLT-4 leukemia): 40.5 µM
TGI (UO-31 renal): 26.7 µM
TGI (NCI-H522 lung): 33.2 µM
TGI (EKVX NSCLC): 42.8 µM
TGI (UACC-257 melanoma): 34.8 µM
TGI (SK-MEL-2 melanoma): 40.5 µM
TGI (A549 NSCLC): 91.2 µM
TGI (SK-MEL-28 melanoma): 33.1 µM
TGI (NCI-H226 lung): 43.9 µM
TGI (RXF-631 renal): 37 µM
TGI (ACHN renal): 42.6 µM
TGI (DMS 114 small cell lung): 33.3 µM
TGI (XF 498 CNS): 31.6 µM
TGI (COLO 205 colon): 37.9 µM
TGI (HCC-2998 colon): 26.2 µM
TGI (OVCAR-8 ovarian): 49.4 µM
TGI (DMS 273 small cell lung): 41 µM
TGI (SK-MEL-5 melanoma): 30.4 µM
TGI (KM12 colon): 32.2 µM
TGI (NCI-H23 lung): 30.6 µM
TGI (IGROV1 ovarian): 28.9 µM
TGI (HCT-15 colon): 35.7 µM
TGI (786-0 renal): 29.8 µM
TGI (LXFL 529 NSCLC): 29.7 µM
TGI (UACC-62 melanoma): 34.5 µM
TGI (SW-620 colon): 36.7 µM
TGI (KM20L2 colon): 37.2 µM
TGI (SF-268 CNS): > 100 µM
TGI (OVCAR-3 ovarian): 31.8 µM
TGI (OVCAR-5 ovarian): 40.6 µM
TGI (RXF 393 renal): 30.4 µM
TGI (LOX IMVI melanoma): 30.8 µM
TGI (SK-OV-3 ovarian): 50.4 µM
TGI (MALME-3M melanoma): 62.3 µM
TGI (HL-60(TB) leukemia): 36.8 µM

CCCCCCC(=O)OC[n+]1ccc2c(C)c3[nH]c4ccccc4c3c(C)c2c1
TGI (RPMI-8226 leukemia): 1.69 µM
TGI (HOP-92 NSCLC): 23.9 µM
TGI (TK-10 renal): 14.3 µM
TGI (CAKI-1 renal): 6.55 µM
TGI (HOP-62 NSCLC): 24.7 µM
TGI (MOLT-4 leukemia): 12.7 µM
TGI (A498 renal): 2.19 µM
TGI (UO-31 renal): 26 µM
TGI (SK-MEL-2 melanoma): 37.8 µM
TGI (SK-MEL-28 melanoma): 3.1 µM
TGI (RXF-631 renal): > 100 µM
TGI (ACHN renal): 12.4 µM
TGI (IGROV1 ovarian): 30.8 µM
TGI (UACC-62 melanoma): 16.4 µM
TGI (KM20L2 colon): 2.96 µM
TGI (SF-268 CNS): 2.52 µM
TGI (OVCAR-5 ovarian): 3.6 µM
TGI (RXF 393 renal): 2.26 µM
TGI (SK-OV-3 ovarian): 6.31 µM
TGI (SR leukemia): 8.77 µM
TGI (HL-60(TB) leukemia): > 100 µM

CS(=O)(=O)NNS(=O)(=O)c1cccc([N+](=O)[O-])c1
TGI (DLD-1 colon): > 100 µM
TGI (OVCAR-4 ovarian): > 100 µM
TGI (SNB-75 CNS): > 100 µM
TGI (SN12C renal): > 100 µM
TGI (SF-295 CNS): > 100 µM
TGI (RPMI-8226 leukemia): > 100 µM
TGI (SF-539 CNS): > 100 µM
TGI (M14 melanoma): > 100 µM
TGI (TK-10 renal): > 100 µM
TGI (HT29 colon): > 100 µM
TGI (CAKI-1 renal): > 100 µM
TGI (K-562 leukemia): > 100 µM
TGI (NCI-H460 lung): > 100 µM
TGI (HOP-62 NSCLC): > 100 µM
TGI (M19-MEL melanoma): > 100 µM
TGI (CCRF-CEM leukemia): > 100 µM
TGI (MOLT-4 leukemia): > 100 µM
TGI (A498 renal): > 100 µM
TGI (UO-31 renal): > 100 µM
TGI (NCI-H522 lung): > 100 µM
TGI (EKVX NSCLC): > 100 µM
TGI (UACC-257 melanoma): > 100 µM
TGI (SK-MEL-2 melanoma): > 100 µM
TGI (A549 NSCLC): > 100 µM
TGI (NCI-H226 lung): > 100 µM
TGI (RXF-631 renal): > 100 µM
TGI (ACHN renal): > 100 µM
TGI (SNB-19 CNS): > 100 µM
TGI (DMS 114 small cell lung): > 100 µM
TGI (XF 498 CNS): > 100 µM
TGI (COLO 205 colon): > 100 µM
TGI (U251 CNS): > 100 µM
TGI (HCC-2998 colon): > 100 µM
TGI (OVCAR-8 ovarian): > 100 µM
TGI (DMS 273 small cell lung): > 100 µM
TGI (SK-MEL-5 melanoma): > 100 µM
TGI (KM12 colon): > 100 µM
TGI (NCI-H23 lung): > 100 µM
TGI (IGROV1 ovarian): > 100 µM
TGI (HCT-15 colon): > 100 µM
TGI (786-0 renal): > 100 µM
TGI (LXFL 529 NSCLC): > 100 µM
TGI (HCT-116 colon): > 100 µM
TGI (UACC-62 melanoma): > 100 µM
TGI (SW-620 colon): > 100 µM
TGI (KM20L2 colon): > 100 µM
TGI (RXF 393 renal): > 100 µM
TGI (LOX IMVI melanoma): > 100 µM
TGI (SR leukemia): > 100 µM
TGI (MALME-3M melanoma): > 100 µM
TGI (HL-60(TB) leukemia): > 100 µM

O=C(O)CCCCCCC[C@@H]1S[C@H]1CCCCCCO
TGI (DLD-1 colon): > 100 µM
TGI (OVCAR-4 ovarian): > 100 µM
TGI (SNB-75 CNS): > 100 µM
TGI (MCF7 breast): > 100 µM
TGI (SN12C renal): > 100 µM
TGI (SF-295 CNS): > 100 µM
TGI (RPMI-8226 leukemia): > 100 µM
TGI (HOP-92 NSCLC): > 94.4 µM
TGI (SF-539 CNS): > 100 µM
TGI (NCI/ADR-RES ovarian): > 100 µM
TGI (HOP-18 NSCLC): > 100 µM
TGI (HT29 colon): > 100 µM
TGI (CAKI-1 renal): > 100 µM
TGI (K-562 leukemia): > 100 µM
TGI (SNB-78 CNS): > 100 µM
TGI (NCI-H460 lung): > 100 µM
TGI (HOP-62 NSCLC): > 100 µM
TGI (M19-MEL melanoma): > 100 µM
TGI (CCRF-CEM leukemia): > 100 µM
TGI (P388/ADR leukemia): > 100 µM
TGI (MOLT-4 leukemia): > 100 µM
TGI (A498 renal): > 100 µM
TGI (SN12K1 renal): > 100 µM
TGI (UO-31 renal): > 100 µM
TGI (NCI-H522 lung): > 100 µM
TGI (EKVX NSCLC): > 100 µM
TGI (UACC-257 melanoma): > 100 µM
TGI (SK-MEL-2 melanoma): > 100 µM
TGI (A549 NSCLC): > 100 µM
TGI (SK-MEL-28 melanoma): > 100 µM
TGI (NCI-H226 lung): > 100 µM
TGI (P388 leukemia): > 100 µM
TGI (SNB-19 CNS): > 100 µM
TGI (DMS 114 small cell lung): > 100 µM
TGI (XF 498 CNS): > 100 µM
TGI (COLO 205 colon): > 100 µM
TGI (U251 CNS): > 100 µM
TGI (HCC-2998 colon): > 100 µM
TGI (OVCAR-8 ovarian): > 100 µM
TGI (DMS 273 small cell lung): > 100 µM
TGI (SK-MEL-5 melanoma): > 100 µM
TGI (KM12 colon): > 100 µM
TGI (NCI-H23 lung): > 100 µM
TGI (IGROV1 ovarian): > 100 µM
TGI (HCT-15 colon): > 100 µM
TGI (HCT-116 colon): > 100 µM
TGI (UACC-62 melanoma): > 100 µM
TGI (SW-620 colon): > 100 µM
TGI (KM20L2 colon): > 100 µM
TGI (SF-268 CNS): > 100 µM
TGI (OVCAR-3 ovarian): > 100 µM
TGI (OVCAR-5 ovarian): > 100 µM
TGI (RXF 393 renal): > 100 µM
TGI (LOX IMVI melanoma): > 100 µM
TGI (SK-OV-3 ovarian): > 100 µM
TGI (MALME-3M melanoma): > 100 µM
TGI (HL-60(TB) leukemia): > 100 µM
